Data as given in patent US6159733A, “Method for photoinactivating malignant cells” (priority 1996, dated 2000).

Tests used:
V79 = details: cited from earlier work
WEHI-3 cells = assay: Uptake of Pc 4, flow cytometry; type: cell-based, murine; details: for Pc 4 content / Pc 4 content per cell volume: 15 nM
Protocol: (§1) Cell lines and culture conditions. WEHI-3 (murine myelocytic leukemia), L1210 (murine lymphocytic leukemia) and P815 (murine mastocytoma) cells were grown in RPMI 1640 (GibcoBRL, Grand Island, N.Y.) supplemented with 10% FBS. BC3A (murine leukemia) cells were grown in RPMI 1640 supplemented with 10 μM β-mercaptoethanol and 10% FBS; ABE-8.1/2 (murine pre-B lymphoma) cells were grown in DMEM (GibcoBRL)--10 μM β-mercaptoethanol--10% FBS. All cell lines were obtained from the American Type Culture Collection (Rockville, Md.) and were cultured at 37° C. in a humidified 5% CO2 -incubator. Prior to incubation with Pc 4, the cell lines were centrifuged and resuspended in phosphate buffered saline (PBS)--10% FBS, pH 7.4.
(§2) In mixing experiments, aliquots of Ly-5.2 BM and cell lines samples were mixed at different ratios. The combined cell concentration of each sample was 1.5×10^7 cells/mL. […] The cell lines were stained with anti-Ly-5.1^FITC. This treatment allowed clear resolution of the relatively small ABE-8.1/2 and BC3A cells from the bone marrow granulocytes. Immediately prior to the analyses, propidium iodide (PI, 0.5 μg/mL) was added to the samples to allow exclusion of dead cells (PI^+) from the analyses. The samples were analyzed in a FACStar^PLUS (BD) that was equipped with an argon ion laser tuned to 488 nm (200 mW) and a dye laser tuned to 610 nm (300 mW). FITC, PE, PI and Pc 4 fluorescence emissions were collected through 530/30, 575/42, 660/10, 670/10 nm band pass filters, respectively.
(§3) Cell size. Microscopic measurements of at least 20 cells were performed using a calibrated micrometer. To determine the cell size of the BM progenitor subsets, the c-kit^+,Sca-1^- and c-kit^+,Sca-1^+ fractions were sorted. The sorted cells were centrifuged and the pellets were resuspended in a 20 μl of HBBS. Samples were deposited onto microscope slides and covered with a cover slip. Cell diameters of 7.7±0.2 (c-kit^+,Sca-1^+), 8.4±0.3 (c-kit^+,Sca-1^-), 10.9±0.2 (BC3A), 11.1±0.2 (ABE-8.1/2), 13.0±0.3 (L1210), 14.2±0.3 (P815), 15.0±0.4 μm (WEHI-3) were obtained.

L1210 cells = assay: Uptake of Pc 4, flow cytometry; type: cell-based, murine; details: for Pc 4 content / Pc 4 content per cell volume: 15 nM
Protocol: as §1, §2, §3

ABE-8.1/2 cells = assay: Uptake of Pc 4, flow cytometry; type: cell-based, murine; details: for Pc 4 content / Pc 4 content per cell volume: 15 nM
Protocol: as §1, §2, §3

P815 cells = assay: Uptake of Pc 4, flow cytometry; type: cell-based, murine; details: for Pc 4 content / Pc 4 content per cell volume: 15 nM
Protocol: as §1, §2, §3

BC3A cells = assay: Uptake of Pc 4, flow cytometry; type: cell-based, murine
Protocol: as §1, §2, §3

CFU-GM = details: 15 nM Pc 4, 5×10^6 cells/mL, 8 J/cm^2; cited from earlier work
[1] = 1.5×10^6 cells/ml during incubation
[2] = 1.5×10^7 cells/ml during incubation
[3] = from 8.0×10^5 to 1.5×10^7 cells/mL
[4] = 15 nM, 1.5×10^6 cells/ml during incubation
[5] = 15 nM, 1.5×10^7 cells/ml during incubation

CN(C)CCC[Si](C)(C)O[Si]1(O)n2c3c4ccccc4c2N=C2N=C(N=c4c5ccccc5c(n41)=NC1=NC(=N3)c3ccccc31)c1ccccc12 (stereo not shown) [Pc 4, hydroxysiloxy-dimethylpropyl-N-dimethyl silicon phthalocyanine]
photoinactivation of V79 cells (V79): effectively photoinactivate
Pc 4 content (WEHI-3 cells; [1]): 296 ± 8.5 Mean fluorescence/cell
Pc 4 content per cell volume (WEHI-3 cells; [1]): 0.17 Mean fluorescence/μm^3
Pc 4 content (WEHI-3 cells; [2]): 57 ± 4.7 Mean fluorescence/cell
Pc 4 content per cell volume (WEHI-3 cells; [2]): 0.03 Mean fluorescence/μm^3
reduction of Pc 4 uptake (WEHI-3 cells; [3]): 5.1 fold
Pc 4 content (L1210 cells; [1]): 291 ± 14.0 Mean fluorescence/cell
Pc 4 content per cell volume (L1210 cells; [1]): 0.25 Mean fluorescence/μm^3
Pc 4 content (L1210 cells; [2]): 124 ± 4.2 Mean fluorescence/cell
Pc 4 content per cell volume (L1210 cells; [2]): 0.11 Mean fluorescence/μm^3
reduction of Pc 4 uptake (L1210 cells; [3]): 2.5 fold
Pc 4 content (ABE-8.1/2 cells; [1]): 218 ± 29.0 Mean fluorescence/cell
Pc 4 content per cell volume (ABE-8.1/2 cells; [1]): 0.30 Mean fluorescence/μm^3
Pc 4 content (ABE-8.1/2 cells; [2]): 95 ± 7.6 Mean fluorescence/cell
Pc 4 content per cell volume (ABE-8.1/2 cells; [2]): 0.13 Mean fluorescence/μm^3
reduction of Pc 4 uptake (ABE-8.1/2 cells; [3]): 2.5 fold
Pc 4 content (P815 cells; [1]): 414 ± 21.5 Mean fluorescence/cell
Pc 4 content per cell volume (P815 cells; [1]): 0.28 Mean fluorescence/μm^3
Pc 4 content (P815 cells; [2]): 152 ± 17.2 Mean fluorescence/cell
Pc 4 content per cell volume (P815 cells; [2]): 0.10 Mean fluorescence/μm^3
reduction of Pc 4 uptake (P815 cells; [3]): 2.8 fold
cell concentration at which uptake reached a plateau (BC3A cells; 15 nM): 8.0×10^5 cells/mL
Pc 4 content (BC3A cells; [4]): 137 ± 11.3 Mean fluorescence/cell
Pc 4 content per cell volume (BC3A cells; [4]): 0.20 Mean fluorescence/μm^3
Pc 4 content (BC3A cells; [5]): 80 ± 5.5 Mean fluorescence/cell
Pc 4 content per cell volume (BC3A cells; [5]): 0.12 Mean fluorescence/μm^3
reduction of Pc 4 uptake (BC3A cells; [3]): 1.6 fold
surviving fraction of human cells (CFU-GM): 1.0
